Experimental data taken from patent US11136313B2, “Compounds, compositions, and methods for modulating CFTR” (Proteostasis Therapeutics, Inc., priority 2015, dated 2021).

Molecular target: T1, ΔF508-CFTR (Homo sapiens, UniProt P13569, DEL508-508)
T1 construct: Primary lung epithelial cells homozygous for the Cystic Fibrosis-causing ΔF508 mutation were differentiated for a minimum of 4 weeks; endogenous in cells; host or cells: primary lung epithelial cells (hBE) homozygous for ΔF508, differentiated at an air-liquid interface
Assay: hBE equivalent current (Ieq) assay: AUC of equivalent chloride current after forskolin/VX-770 in primary lung epithelial cells homozygous for ΔF508
Type: cell-based
Conditions: relative to CFTR amplifier (Compound A)+VX-809 (3 uM), compound at 10 uM and Compound A at 3 uM, 24 h treatment
Procedure: ii. hBE Equivalent Current (Ieq) Assay
Primary lung epithelial cells homozygous for the Cystic Fibrosis-causing ΔF508 mutation were differentiated for a minimum of 4 weeks in an air-liquid interface on Costar 24 well HTS filter plates prior to the equivalent current (Ieq) measurements. Cells were apically mucus-washed for 30 minutes 24 h prior to treatment with compounds. The basolateral media was removed and replaced with media containing the compound of interest diluted to its final concentration from DMSO stocks. Treated cells were incubated at 37° C. and 5% CO2 for 24 hours. At the end of the treatment period, the media was changed to the Ieq experimental solution for 2 hours before the experiment and plates are maintained in a CO2-free incubator during this period. The plates containing the cells were then placed in pre-warmed heating blocks at 36° C.±0.5 for 15 minutes before measurements are taken. The transepithelial voltage (VT) and conductance (GT) were measured using a custom 24 channel current clamp (TECC-24) with 24 well electrode manifold. The Ieq assay measurements were made following additions with standardized time periods: • 1. The baseline VT and GT values were measured for approximately 20 minutes. • 2. Benzamil was added to block ENaC for 15 minutes. • 3. Forskolin plus VX-770 were added to maximally activate ΔF508-CFTR for 27 minutes. • 4. Bumetanide was added to inhibit the NaK2Cl cotransporter and shut-off secretion of chloride.
The activity data captured was the area under the curve (AUC) for the traces of the equivalent chloride current. The AUC was collected from the time of the forskolin/VX-770 addition until the inhibition by bumetanide addition. Correction in response to compound treatment was scored as the increase in the AUC for compound-treated samples over that of vehicle-treated samples.
(+ indicates activity<50% of an CFTR amplifier (Compound A)+VX-809 (3 uM) with compound at 10 uM and Compound A at 3 uM; ++ indicates activity>50% of CFTR amplifier+VX-809 (3 uM) with compound at 10 uM and Compound A at 3 uM.

T1 sequence (P13569 with tags, fused parts or gaps DEL508-508): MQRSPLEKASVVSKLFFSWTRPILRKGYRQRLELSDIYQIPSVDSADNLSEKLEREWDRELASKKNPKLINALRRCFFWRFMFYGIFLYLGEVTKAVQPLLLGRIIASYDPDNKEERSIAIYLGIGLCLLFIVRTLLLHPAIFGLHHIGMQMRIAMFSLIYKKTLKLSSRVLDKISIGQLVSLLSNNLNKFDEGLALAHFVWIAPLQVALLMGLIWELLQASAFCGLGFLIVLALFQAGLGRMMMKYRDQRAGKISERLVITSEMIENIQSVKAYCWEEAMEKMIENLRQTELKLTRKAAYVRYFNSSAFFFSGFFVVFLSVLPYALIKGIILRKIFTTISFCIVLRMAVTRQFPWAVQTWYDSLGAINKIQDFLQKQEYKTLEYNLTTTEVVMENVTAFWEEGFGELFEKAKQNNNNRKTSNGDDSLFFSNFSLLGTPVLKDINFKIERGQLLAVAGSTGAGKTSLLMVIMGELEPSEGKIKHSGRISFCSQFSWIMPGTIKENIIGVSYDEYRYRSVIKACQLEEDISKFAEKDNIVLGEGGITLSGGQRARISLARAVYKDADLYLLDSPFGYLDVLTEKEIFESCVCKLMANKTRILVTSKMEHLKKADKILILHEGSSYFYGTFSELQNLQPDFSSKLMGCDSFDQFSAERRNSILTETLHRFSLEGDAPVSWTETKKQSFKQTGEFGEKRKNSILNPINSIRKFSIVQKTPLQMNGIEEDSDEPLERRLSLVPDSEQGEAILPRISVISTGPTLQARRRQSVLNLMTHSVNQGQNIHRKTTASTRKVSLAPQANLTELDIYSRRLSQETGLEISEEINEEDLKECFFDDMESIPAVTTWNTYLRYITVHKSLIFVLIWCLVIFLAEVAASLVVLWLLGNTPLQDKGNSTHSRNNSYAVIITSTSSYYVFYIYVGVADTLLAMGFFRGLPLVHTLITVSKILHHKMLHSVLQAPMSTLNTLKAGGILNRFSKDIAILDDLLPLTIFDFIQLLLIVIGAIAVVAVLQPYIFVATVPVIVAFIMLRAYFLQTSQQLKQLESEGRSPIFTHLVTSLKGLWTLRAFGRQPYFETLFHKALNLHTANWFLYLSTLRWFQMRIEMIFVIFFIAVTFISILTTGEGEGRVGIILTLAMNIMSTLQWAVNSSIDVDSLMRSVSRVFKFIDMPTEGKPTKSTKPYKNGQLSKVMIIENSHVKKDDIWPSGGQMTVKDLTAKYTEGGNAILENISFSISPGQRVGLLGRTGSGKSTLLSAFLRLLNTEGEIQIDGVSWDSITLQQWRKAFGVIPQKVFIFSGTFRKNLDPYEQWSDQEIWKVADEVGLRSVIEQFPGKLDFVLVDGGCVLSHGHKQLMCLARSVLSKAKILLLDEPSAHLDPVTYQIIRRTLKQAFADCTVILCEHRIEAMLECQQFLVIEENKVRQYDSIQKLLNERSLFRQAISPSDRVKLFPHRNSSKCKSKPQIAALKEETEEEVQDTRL

| Compound | Activity |
| --- | --- |
| Cc1c(-c2nc(C(=O)O)c3c(OCc4ccccc4)ccc(C)c3n2)oc2ccccc12 [Compound 101, 5-(Benzyloxy)-8-methyl-2-(3-methyl-1-benzofuran-2-yl)quinazoline-4-carboxylic Acid] | ++ (activity>50% of CFTR amplifier+VX-809 (3 uM) with compound at 10 uM and Compound A at 3 uM) |
| Cc1c(-c2cc(C(=O)O)c3cc(Cl)cc(C)c3n2)sc2ccccc12 [Compound 104, 6-Chloro-8-methyl-2-(3-methyl-1-benzothiophen-2-yl)quinoline-4-carboxylic acid] | ++ (activity>50% of CFTR amplifier+VX-809 (3 uM) with compound at 10 uM and Compound A at 3 uM) |
| Cc1cc(C)c2nc(-c3oc4ccccc4c3C)c(C(=O)O)cc2c1 [Compound 105, 6,8-Dimethyl-2-(3-methyl-1-benzofuran-2-yl)quinoline-3-carboxylic Acid] | + (activity<50% of an CFTR amplifier (Compound A)+VX-809 (3 uM) with compound at 10 uM and Compound A at 3 uM) |
| Cc1oc2ccccc2c1-c1cc(C(=O)O)c2c(OCc3ccccc3)ccc(C3CC3)c2n1 [Compound 106, 5-(Benzyloxy)-8-cyclopropyl-2-(2-methyl-1-benzofuran-3-yl)quinoline-4-carboxylic acid] | ++ (activity>50% of CFTR amplifier+VX-809 (3 uM) with compound at 10 uM and Compound A at 3 uM) |
| Cc1c(-c2cc(C(=O)O)c3c(OCc4ccccc4)ccc(C4CC4)c3n2)oc2ccccc12 [Compound 107, 5-(Benzyloxy)-8-cyclopropyl-2-(3-methyl-1-benzofuran-2-yl)quinoline-4-carboxylic acid] | ++ (activity>50% of CFTR amplifier+VX-809 (3 uM) with compound at 10 uM and Compound A at 3 uM) |
| CCc1ccc(OCc2ccccc2)c2c(C(=O)O)cc(-c3oc4ccccc4c3C)nc12 [Compound 108, 5-(benzyloxy)-8-ethyl-2-(3-methyl-1-benzofuran-2-yl)quinoline-4-carboxylic acid] | ++ (activity>50% of CFTR amplifier+VX-809 (3 uM) with compound at 10 uM and Compound A at 3 uM) |
| Cc1c(-c2cc(C(=O)O)c3c(OCc4ccccc4)ccc(C(C)C)c3n2)oc2ccccc12 [Compound 109, 5-(Benzyloxy)-2-(3-methyl-1-benzofuran-2-yl)-8-(propan-2-yl)quinoline-4-carboxylic acid] | ++ (activity>50% of CFTR amplifier+VX-809 (3 uM) with compound at 10 uM and Compound A at 3 uM) |
| Cc1c(-c2cc(C(=O)O)c3c(OCc4ccccc4)ccc(F)c3n2)oc2ccccc12 [Compound 110, 5-(Benzyloxy)-8-fluoro-2-(3-methyl-1-benzofuran-2-yl)quinoline-4-carboxylic acid] | ++ (activity>50% of CFTR amplifier+VX-809 (3 uM) with compound at 10 uM and Compound A at 3 uM) |
| Cc1c(-c2cc(C(=O)O)c3c(OCc4ccccc4)ccc(Cl)c3n2)oc2ccccc12 [Compound 111, 5-(Benzyloxy)-8-chloro-2-(3-methyl-1-benzofuran-2-yl)quinoline-4-carboxylic acid] | + (activity<50% of an CFTR amplifier (Compound A)+VX-809 (3 uM) with compound at 10 uM and Compound A at 3 uM) |
| Cc1c(-c2cc(C(=O)O)c3c(OCc4ccccc4)ccc(C#N)c3n2)oc2ccccc12 [Compound 112, 5-(benzyloxy)-8-cyano-2-(3-methyl-1-benzofuran-2-yl)quinoline-4-carboxylic Acid] | ++ (activity>50% of CFTR amplifier+VX-809 (3 uM) with compound at 10 uM and Compound A at 3 uM) |
| CCc1ccc(C)c2nc(-c3oc4ccccc4c3C)cc(C(=O)O)c12 [Compound 113, 5-Ethyl-8-methyl-2-(3-methyl-1-benzofuran-2-yl)quinoline-4-carboxylic acid] | + (activity<50% of an CFTR amplifier (Compound A)+VX-809 (3 uM) with compound at 10 uM and Compound A at 3 uM) |
| Cc1c(-c2cc(C(=O)O)c3c(OCc4cccnc4)ccc(C)c3n2)oc2ccccc12 [Compound 114, 8-Methyl-2-(3-methyl-1-benzofuran-2-yl)-5-(pyridin-3-ylmethoxy)quinoline-4-carboxylic acid] | + (activity<50% of an CFTR amplifier (Compound A)+VX-809 (3 uM) with compound at 10 uM and Compound A at 3 uM) |
| Cc1c(-c2cc(C(=O)O)c3c(OCc4ccccn4)ccc(C)c3n2)oc2ccccc12 [Compound 115, 8-Methyl-2-(3-methyl-1-benzofuran-2-yl)-5-(pyridin-2-ylmethoxy)quinoline-4-carboxylic acid] | + (activity<50% of an CFTR amplifier (Compound A)+VX-809 (3 uM) with compound at 10 uM and Compound A at 3 uM) |
| Cc1c(-c2cc(C(=O)O)c3c(NCc4ccccc4)ccc(C)c3n2)oc2ccccc12 [Compound 116, 5-(Benzylamino)-8-methyl-2-(3-methyl-1-benzofuran-2-yl)quinoline-4-carboxylic Acid] | ++ (activity>50% of CFTR amplifier+VX-809 (3 uM) with compound at 10 uM and Compound A at 3 uM) |
| Cc1c(-c2cc(C(=O)O)c3cc(OC(F)(F)F)cc(C)c3n2)oc2ccccc12 [Compound 117, 8-Methyl-2-(3-methyl-1-benzofuran-2-yl)-6-(trifluoromethoxy)quinoline-4-carboxylic acid] | ++ (activity>50% of CFTR amplifier+VX-809 (3 uM) with compound at 10 uM and Compound A at 3 uM) |
| Cc1c(-c2cc(C(=O)O)c3cc(OC(F)F)cc(C)c3n2)oc2ccccc12 [Compound 118, 6-(Difluoromethoxy)-8-methyl-2-(3-methyl-1-benzofuran-2-yl)quinoline-4-carboxylic acid] | ++ (activity>50% of CFTR amplifier+VX-809 (3 uM) with compound at 10 uM and Compound A at 3 uM) |
| Cc1c(-c2cc(C(=O)O)c3cc(OCC(F)F)cc(C)c3n2)oc2ccccc12 [Compound 119, 6-(2,2-Difluoroethoxy)-8-methyl-2-(3-methyl-1-benzofuran-2-yl)quinoline-4-carboxylic acid] | + (activity<50% of an CFTR amplifier (Compound A)+VX-809 (3 uM) with compound at 10 uM and Compound A at 3 uM) |
| Cc1c(-c2cc(C(=O)O)c3c(OC(F)F)ccc(C)c3n2)oc2ccccc12 [Compound 120, 5-(Difluoromethoxy)-8-methyl-2-(3-methyl-1-benzofuran-2-yl)quinoline-4-carboxylic acid] | ++ (activity>50% of CFTR amplifier+VX-809 (3 uM) with compound at 10 uM and Compound A at 3 uM) |
| Cc1c(-c2cc(C(=O)O)c3c(OC(F)(F)F)ccc(C)c3n2)oc2ccccc12 [Compound 121, 8-Methyl-2-(3-methyl-1-benzofuran-2-yl)-5-(trifluoromethoxy)quinoline-4-carboxylic acid] | + (activity<50% of an CFTR amplifier (Compound A)+VX-809 (3 uM) with compound at 10 uM and Compound A at 3 uM) |
| Cc1c(-c2cc(C(=O)O)c3c(OCC(F)F)ccc(C)c3n2)oc2ccccc12 [Compound 122, 5-(2,2-Difluoroethoxy)-8-methyl-2-(3-methyl-1-benzofuran-2-yl)quinoline-4-carboxylic acid] | ++ (activity>50% of CFTR amplifier+VX-809 (3 uM) with compound at 10 uM and Compound A at 3 uM) |
| Cc1oc2ccccc2c1-c1cc(C(=O)O)c2c(OC(F)F)ccc(C)c2n1 [Compound 123, 5-(Difluoromethoxy)-8-methyl-2-(2-methyl-1-benzofuran-3-yl)quinoline-4-carboxylic acid] | + (activity<50% of an CFTR amplifier (Compound A)+VX-809 (3 uM) with compound at 10 uM and Compound A at 3 uM) |
